The test system of test [1] is Dopamine MAB Cy3–BHQ-1 (DNA, aptamer) ACGCCAGTTTGAAGGTTCGTTCGCAGGTGTGGAGTGACGT
Kind of test: fluorescence melting. The following applies: 1x PBS, 2 mM MgCl2; derived from two Tm (49.5 ± 0.3, 52.7 ± 0.8); 50 µM dopamine, pH 8.0.

Test [2] relates to Dopamine MAB FAM–BHQ-1 (DNA, aptamer) ACGCCAGTTTGAAGGTTCGTTCGCAGGTGTGGAGTGACGT
Nature of the test: fluorescence melting. The following applies: 1x PBS, 2 mM MgCl2; derived from two Tm (44.8 ± 0, 37.7 ± 0.1); 50 µM dopamine, pH 8.0.

Test [3] concerns Dopamine DBS FAM(+T)–IABkFQ (DNA, aptamer, 6-FAM-dT (azide click) at 33) AAATACAACAAGAAAAAACTCTCGGGACGACGTACCAGTTTGAAGGTTCGTTCGCAGGTGTGGAGTGACGTCGTCCC
Nature of the test: fluorescence strand-displacement titration. The note with it: 1x PBS, 2 mM MgCl2; apparent; pH 8.0, 25 °C; displaced 42-nt 5'-IABkFQ strand, 4 eq.

Test [4] relates to Dopamine DBS Cy3(+T)–IABkFQ (DNA, aptamer) AAATACAACAAGAAAAAACTCTCGGGACGACGTACCAGTTTGAAGGTTCGTTCGCAGGTGTGGAGTGACGTCGTCCC
Kind of test: fluorescence strand-displacement titration. The note with it: 1x PBS, 2 mM MgCl2; apparent; pH 8.0, 25 °C; displaced 42-nt 5'-IABkFQ strand, 4 eq.

In test [5] the test system is Dopamine DBS FAM(+T)–BHQ-1 Internal (DNA, aptamer, 6-FAM-dT (azide click) at 33) AAATACAACAAGAAAAAACTCTCGGGACGACGTACCAGTTTGAAGGTTCGTTCGCAGGTGTGGAGTGACGTCGTCCC
Kind of test: fluorescence strand-displacement titration. The note with it: 1x PBS, 2 mM MgCl2; apparent; pH 8.0, 25 °C; displaced 42-nt strand, internal BHQ-1, 4 eq.

The subject of test [6] is Dopamine DBS Cy3/Cy5 – No (position 3) (DNA, aptamer) AAATACAACAAGAAAAAACTCTCGGGACGACGACCAGTTTGAAGGTTCGTTCGCAGGTGTGGAGTGACGTCGTCCC
Kind of test: fluorescence strand-displacement titration. The note with it: 1x PBS, 2 mM MgCl2; apparent; pH 8.0, 25 °C; displaced 42-nt 3'-biotin strand without quencher; 565 nm readout.

Test [7] relates to Dopamine MAB Cy3–BHQ-1 (DNA, aptamer) ACGCCAGTTTGAAGGTTCGTTCGCAGGTGTGGAGTGACGT
Kind of test: fluorescence quenching titration (molecular aptamer beacon). The note with it: 1x PBS, 2 mM MgCl2; apparent; pH 8.0, 25 °C.

Test [8] has as its system Dopamine MAB BHQ-1–FAM (DNA, aptamer) ACGCCAGTTTGAAGGTTCGTTCGCAGGTGTGGAGTGACGT
The test is described as above. The following applies: 1x PBS, 2 mM MgCl2; apparent; pH 8.0, 25 °C.

For the compound `NCCc1ccc(O)c(O)c1`, the Tm was 3.2 °C in test [1] and -7.1 °C in test [2]. The Kd in test [3] turned out to be 19.6 ± 0.9 µM; in test [4] it was 41.8 ± 5.0 µM; in test [5], 7.5 ± 0.9 µM; in test [6], 9.9 ± 3.6 µM; in test [7], 53.8 ± 8.8 µM; in test [8], 5.3 ± 0.8 µM.

Source of the values: publication PMC12700101 (2025).
